System: female Wistar rats
Assay: Hypovolemic shock produced by bleeding in anesthetized rats, intravenous bolus of the polypeptides
Type: in vivo, rat
Conditions: for MEAN ARTERIAL PRESSURE 15-30 min. After bleeding: mean ± S.E.
Method: Intact and adrenalectomized female Wistar rats (Nossan, Correzzano, Milano, Italy) weighing 250 to 300 g were used. Following anesthetization and heparinization a common carotid artery and an iliac vein were cannulated in rats. Arterial blood pressure was recorded by means of a pressure transducer (Statham P23 Db) connected to a polygraph (Battaglia-Rangoni, Bologna, Italy). […] Hypovolemic shock was produced by intermittently withdrawing blood from the venous catheter until mean arterial pressure fell to 10-25 mm Hg. […] Following bleeding and mean blood pressure stabilization in the range of 10-25 mm Hg, animals were given intravenous bolus of the polypeptides. Control animals were intravenously injected with the same volume of saline (0.1 ml/100 g).

Substance | No. of deaths 120 min. after treatment (5 μg/kg i.v. after bleeding, 6 rats used (saline: 12 of 12 died)) | MEAN ARTERIAL PRESSURE 15-30 min. After bleeding (5 μg/kg i.v. after bleeding, 6 rats, before bleeding 71.17 ± 6.07, after bleeding 11.83 ± 0.79, P < 0.05 versus value after bleeding) | No. of deaths 120 min. after treatment (10 μg/kg i.v. after bleeding, 5 rats used (saline: 12 of 12 died)) | MEAN ARTERIAL PRESSURE 15-30 min. After bleeding (10 μg/kg i.v. after bleeding, 5 rats, before bleeding 68.40 ± 4.98, after bleeding 14.00 ± 1.82, P < 0.01 versus value after bleeding) | No. of deaths 120 min. after treatment (20 μg/kg i.v. after bleeding, 5 rats used (saline: 12 of 12 died)) | MEAN ARTERIAL PRESSURE 15-30 min. After bleeding (20 μg/kg i.v. after bleeding, 5 rats, before bleeding 72.00 ± 4.67, after bleeding 14.40 ± 0.87, P < 0.01 versus value after bleeding) | No. of deaths 120 min. after treatment (20 μg/kg i.v. after bleeding, 6 rats used (saline: 12 of 12 died)) | MEAN ARTERIAL PRESSURE 15-30 min. After bleeding (20 μg/kg i.v. after bleeding, 6 rats, before bleeding 75.17 ± 6.62, after bleeding 12.17 ± 1.11, P < 0.01 versus value after bleeding)
CCK8 | 2 | 26.33 ± 7.05 mm Hg | 0 | 41.80 ± 3.79 mm Hg | 0 | 52.40 ± 2.73 mm Hg | – | –
cerulein | – | – | – | – | – | – | 0 | 54.67 ± 4.29 mm Hg

— patent US4794103A, “Pharmaceutical compositions containing peptides of the cholecystokinin-cerulein group for the therapy of shock conditions and of respiratory and cardiocirculatory insufficiencies” (priority 1986, dated 1988)
